The experiment has as its target T1, human GnRH receptor (Homo sapiens, UniProt P30968).
T1 construct: The cDNA for the human GnRH receptor is cloned into the plasmid expression vector, pcDNA 3; expressed in transfected cells; host or cells: HEK 293 cells, stably transfected (pcDNA 3); membrane preparation
T1 sequence (P30968 1-328): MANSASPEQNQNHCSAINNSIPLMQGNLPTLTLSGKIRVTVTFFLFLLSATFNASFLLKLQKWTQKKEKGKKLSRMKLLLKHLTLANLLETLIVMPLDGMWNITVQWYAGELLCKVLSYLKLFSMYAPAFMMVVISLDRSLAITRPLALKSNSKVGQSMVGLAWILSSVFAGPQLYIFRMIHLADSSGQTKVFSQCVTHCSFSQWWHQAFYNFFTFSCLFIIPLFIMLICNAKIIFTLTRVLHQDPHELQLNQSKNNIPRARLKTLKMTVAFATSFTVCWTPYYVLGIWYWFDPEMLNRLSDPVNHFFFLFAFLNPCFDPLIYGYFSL
Description: GnRH receptor competitive radioligand binding assay (125I-GnRH-A, HEK 293 cell membranes). To be noted: compound at 10 μM. The method, boiled down: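 Membranes from HEK 293 cells stably expressing human GnRH receptor (0.5–1.0 mg/mL) incubated 1 h at room temperature with ~0.05–0.1 nM 125I-GnRH-A plus competitor in 50 mM HEPES pH 7.4, 1 mM EDTA, 2.5 mM MgCl2, 0.1% BSA. Bound label collected by filtration onto PEI-soaked filters and counted by scintillation.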

The mark [1] stands for this setting: average of 1st and 2nd test, read-out: Average % Remaining (percent of specific binding remaining).
[2] abbreviates: crude compounds, 125I-GnRH-A, lower value = higher inhibition, read-out: % Remaining 1st Test (percent of specific binding remaining).
The mark [3] stands for this setting: crude compounds, 125I-GnRH-A, lower value = higher inhibition, read-out: % Remaining 2nd Test (percent of specific binding remaining).

Like-named read-outs stand apart in the source and are kept apart here.

`CC(=O)N(Cc1cccc(Oc2ccc(Cl)cc2)c1)CC1CCC(CNC(=N)N)CC1` (stereo not drawn) [Compound 75]: the remaining activity at 10 µM runs as follows: under setting [1], 59%; under setting [2], 59%; under setting [3], 58%.

For the molecule `CN(C)CCCOc1ccc(CN(Cc2ccc(CNC(=N)N)cc2)C(=O)c2ccc3ccccc3c2)cc1` [Compound 3], the remaining activity at 10 µM under setting [1] is 55%, the remaining activity at 10 µM under setting [2] amounted to 58% and the remaining activity at 10 µM under setting [3] came to 57%.

In the case of `COCC(=O)N(Cc1cc2c(cc1C)C(C)(C)CCC2(C)C)CC1CCC(CNC(=N)N)CC1` (stereo not drawn) [Compound 82], the remaining activity at 10 µM by setting is: under setting [1], 41%; under setting [2], 46%; under setting [3], 35%.

Turning to `CN(C)Cc1ccc(CN(Cc2ccc(OCc3ccccc3)c(OCc3ccccc3)c2)C(=O)c2ccco2)cc1` [Compound 70], the remaining activity at 10 µM under setting [1] was 45%, the remaining activity at 10 µM under setting [2] is 47% and the remaining activity at 10 µM under setting [3] stood at 48%.

`Cc1cc2c(cc1CN(CC1CCC(CNC(=N)N)CC1)C(=O)COCc1ccccc1)C(C)(C)CCC2(C)C` (stereo not drawn) [Compound 81]: the remaining activity at 10 µM is, setting by setting: under setting [1], 27%; under setting [2], 28%; under setting [3], 25%.

As to `CN(C)CCCOc1ccc(CN(CC2CCCC(CNC(=N)N)C2)C(=O)c2ccc3ccccc3c2)cc1` (stereo not drawn) [Compound 46], the remaining activity at 10 µM was determined as 49% under setting [1], 45% under setting [2] and 52% under setting [3].

Take `Cc1cc2c(cc1CN(CC1CCC(CNC(=N)N)CC1)C(=O)c1ccco1)C(C)(C)CCC2(C)C` (stereo not drawn) [Compound 80]: the remaining activity at 10 µM was -4% under setting [1], -4% under setting [2] and -4% under setting [3].

For `N=C(N)NCc1ccc(CN(Cc2ccc(OCc3ccccc3)c(OCc3ccccc3)c2)C(=O)c2ccc(Cl)nc2)cc1` [Compound 20], the remaining activity at 10 µM is, setting by setting: under setting [1], 57%; under setting [2], 60%; under setting [3], 54%.

For the molecule `Cc1cc2c(cc1CN(CC1CCCC(CNC(=N)N)C1)C(=O)c1ccco1)C(C)(C)CCC2(C)C` (stereo not drawn) [Compound 55], the remaining activity at 10 µM is, setting by setting: under setting [1], -2%; under setting [2], -2%; under setting [3], -1%.

Regarding `CC(C)(C)c1ccc(CN(CC2CCC(CNC(=N)N)CC2)C(=O)c2cc3ccccc3s2)cc1` (stereo not drawn) [Compound 72], the remaining activity at 10 µM came to 52% under setting [1], 49% under setting [2] and 54% under setting [3].

Regarding `N=C(N)NCCCCN(Cc1ccc(OCc2ccccc2)c(OCc2ccccc2)c1)C(=O)C1CCCCC1` [Compound 33], the remaining activity at 10 µM is 59% under setting [1], 52% under setting [2] and 65% under setting [3].

`Cc1cc2c(cc1CN(CC1CCC(CNC(=N)N)CC1)C(=O)c1ccc([N+](=O)[O-])o1)C(C)(C)CCC2(C)C` (stereo not drawn) [Compound 79]: the remaining activity at 10 µM turned out to be 49% under setting [1], 50% under setting [2] and 48% under setting [3].

Regarding `Cc1cc2c(cc1CN(Cc1ccc(CNC(=N)N)cc1)C(=O)c1ccc(Cl)nc1)C(C)(C)CCC2(C)C` [Compound 16], the remaining activity at 10 µM reads like this: under setting [1], 49%; under setting [2], 50%; under setting [3], 47%.

(Values after patent US6646137B1, “Non-peptide GnRH agents” (priority 1998, dated 2003).)
